According to US10457691B2, “Macrocyclic kinase inhibitors and uses thereof” (Dana-Farber Cancer Institute, Inc., priority 2014, dated 2019):

Legend:
Format in all cases: biochemical
Conditions in all cases: read-out: Activity of the protein kinase when treated with compound I-1 (% control)
[1] = biological target: BRSK2 (Homo sapiens, UniProt Q8IWQ3); assay: Protein kinase assay ([γ-32P] ATP), BRSK2
Method: (§1) In another set of experiments, the activities of the compounds described herein against various protein kinases were determined according to the methods reported in Hastie et al., Nature Protocols, 2006, 1, 968-971.
(§2) Enzyme dilution buffer. This buffer consisted of 50 mM Tris-HCl, pH 7.5, 0.1 mM EGTA, 1 mg ml^−1 bovine serum albumin and 0.1% (vol/vol) 2-mercaptoethanol.
(§3) 10× concentrated assay buffer. An assay buffer of 500 mM Tris-HCl, pH 7.5, 1 mM EGTA, and 100 mM magnesium acetate was used for assay of a wide variety of protein kinases. In some experiments, other cofactors were included (e.g., calcium ions and calmodulin were included for assay of calcium-calmodulindependent protein kinases).
(§4) 1 mM [γ-^32P] ATP. The specific activity of the [γ-^32P] ATP solution was 1×10^5 to 1×10^6 c.p.m. per nmol depending on what was needed to produce an optimal signal/noise ratio. […] To measure the concentration of ATP, a sample of such a stock solution was diluted to 20 μM, and the absorbance of the diluted sample was measured at 259 nm. The absorbance of a 20-μM stock solution of ATP at 259 nm was about 0.31. […] ATP to produce a radioactivity of 1×10^5 to 1×10^6 c.p.m. per nmol. […]
(§5) 13) Measure radioactivity in the samples by Cerenkov counting (e.g., without liquid scintillation fluid) in a liquid scintillation counter using a “^32P program”. […]

[2] = biological target: CDK2-Cyclin A (Homo sapiens, UniProt P24941); assay: Protein kinase assay ([γ-32P] ATP), CDK2-Cyclin A
Method: as §1, §2, §3, §4, §5

[3] = biological target: DYRK2 (Homo sapiens, UniProt Q92630); assay: Protein kinase assay ([γ-32P] ATP), DYRK2
Method: as §1, §2, §3, §4, §5

[4] = biological target: DYRK3 (Homo sapiens, UniProt O43781); assay: Protein kinase assay ([γ-32P] ATP), DYRK3
Method: as §1, §2, §3, §4, §5

[5] = biological target: IRAK1 (Homo sapiens, UniProt P51617); assay: Protein kinase assay ([γ-32P] ATP), IRAK1
Method: as §1, §2, §3, §4, §5

[6] = biological target: JNK3 (Homo sapiens, UniProt P53779); assay: Protein kinase assay ([γ-32P] ATP), JNK3
Method: as §1, §2, §3, §4, §5

[7] = biological target: MEKK1 (Homo sapiens, UniProt Q13233); assay: Protein kinase assay ([γ-32P] ATP), MEKK1
Method: as §1, §2, §3, §4, §5

[8] = biological target: MLK1 (Homo sapiens, UniProt P80192); assay: Protein kinase assay ([γ-32P] ATP), MLK1
Method: as §1, §2, §3, §4, §5

[9] = biological target: NEK6 (Homo sapiens, UniProt Q9HC98); assay: Protein kinase assay ([γ-32P] ATP), NEK6
Method: as §1, §2, §3, §4, §5

[10] = biological target: NUAK1 (Homo sapiens, UniProt O60285); assay: Protein kinase assay ([γ-32P] ATP), NUAK1
Method: as §1, §2, §3, §4, §5

[11] = biological target: PAK2 (Homo sapiens, UniProt Q13177); assay: Protein kinase assay ([γ-32P] ATP), PAK2
Method: as §1, §2, §3, §4, §5

[12] = biological target: PAK4 (Homo sapiens, UniProt O96013); assay: Protein kinase assay ([γ-32P] ATP), PAK4
Method: as §1, §2, §3, §4, §5

[13] = biological target: PIM2 (Homo sapiens, UniProt Q9P1W9); assay: Protein kinase assay ([γ-32P] ATP), PIM2
Method: as §1, §2, §3, §4, §5

[14] = biological target: S6K1 (Homo sapiens, UniProt P23443); assay: Protein kinase assay ([γ-32P] ATP), S6K1
Method: as §1, §2, §3, §4, §5

[15] = biological target: SGK1 (Homo sapiens, UniProt O00141); assay: Protein kinase assay ([γ-32P] ATP), SGK1
Method: as §1, §2, §3, §4, §5

[16] = biological target: SYK (Homo sapiens, UniProt P43405); assay: Protein kinase assay ([γ-32P] ATP), SYK
Method: as §1, §2, §3, §4, §5

[17] = biological target: VEG-FR (Homo sapiens, UniProt P17948); assay: Protein kinase assay ([γ-32P] ATP), VEG-FR
Method: as §1, §2, §3, §4, §5

[18] = 0.1 μM of compound I-1, DMSO control = 100%
[19] = 1 μM of compound I-1, DMSO control = 100%

NUAK1, sequence (O60285 whole entry): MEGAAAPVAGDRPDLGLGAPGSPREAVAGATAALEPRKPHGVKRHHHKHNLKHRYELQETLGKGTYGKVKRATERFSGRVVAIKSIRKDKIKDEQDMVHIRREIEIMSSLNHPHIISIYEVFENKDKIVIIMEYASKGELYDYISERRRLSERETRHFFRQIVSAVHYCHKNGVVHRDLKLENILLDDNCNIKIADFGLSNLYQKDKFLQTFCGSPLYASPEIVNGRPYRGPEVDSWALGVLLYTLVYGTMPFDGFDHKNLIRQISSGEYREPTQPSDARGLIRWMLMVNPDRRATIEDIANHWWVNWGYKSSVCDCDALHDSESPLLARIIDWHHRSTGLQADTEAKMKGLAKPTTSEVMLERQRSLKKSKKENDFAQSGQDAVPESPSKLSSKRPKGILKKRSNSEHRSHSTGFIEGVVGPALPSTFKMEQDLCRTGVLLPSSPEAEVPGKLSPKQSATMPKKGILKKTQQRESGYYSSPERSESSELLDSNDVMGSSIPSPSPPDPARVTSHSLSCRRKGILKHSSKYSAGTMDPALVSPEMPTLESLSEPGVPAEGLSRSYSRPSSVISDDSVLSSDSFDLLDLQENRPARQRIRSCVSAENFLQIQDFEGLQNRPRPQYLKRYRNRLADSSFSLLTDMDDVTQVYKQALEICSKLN
PAK2, sequence (Q13177 whole entry): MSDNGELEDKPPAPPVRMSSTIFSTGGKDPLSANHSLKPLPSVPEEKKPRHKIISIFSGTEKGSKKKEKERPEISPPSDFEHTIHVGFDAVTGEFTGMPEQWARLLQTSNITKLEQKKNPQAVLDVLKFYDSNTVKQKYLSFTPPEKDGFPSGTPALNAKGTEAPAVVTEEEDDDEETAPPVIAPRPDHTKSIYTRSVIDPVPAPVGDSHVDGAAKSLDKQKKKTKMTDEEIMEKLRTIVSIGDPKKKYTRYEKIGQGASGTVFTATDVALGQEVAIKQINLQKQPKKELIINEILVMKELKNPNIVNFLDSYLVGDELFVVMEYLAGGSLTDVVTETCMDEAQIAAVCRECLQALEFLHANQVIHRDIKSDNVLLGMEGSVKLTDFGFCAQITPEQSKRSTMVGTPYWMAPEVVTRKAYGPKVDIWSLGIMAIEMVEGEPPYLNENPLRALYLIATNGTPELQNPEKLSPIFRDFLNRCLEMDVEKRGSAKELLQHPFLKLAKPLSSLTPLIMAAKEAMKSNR
JNK3, sequence (P53779 whole entry): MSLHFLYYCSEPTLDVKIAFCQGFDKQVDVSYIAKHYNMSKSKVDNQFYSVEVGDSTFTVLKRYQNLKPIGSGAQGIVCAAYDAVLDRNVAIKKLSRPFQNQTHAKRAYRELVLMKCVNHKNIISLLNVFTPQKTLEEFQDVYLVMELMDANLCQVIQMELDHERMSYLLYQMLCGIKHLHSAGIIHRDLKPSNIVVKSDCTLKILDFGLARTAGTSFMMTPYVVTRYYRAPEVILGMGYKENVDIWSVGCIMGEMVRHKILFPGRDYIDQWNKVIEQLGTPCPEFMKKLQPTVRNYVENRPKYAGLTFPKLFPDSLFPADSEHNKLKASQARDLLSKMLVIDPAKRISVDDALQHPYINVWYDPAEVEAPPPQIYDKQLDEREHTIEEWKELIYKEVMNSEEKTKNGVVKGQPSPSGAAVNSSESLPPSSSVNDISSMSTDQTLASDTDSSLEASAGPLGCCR
IRAK1, sequence (P51617 whole entry): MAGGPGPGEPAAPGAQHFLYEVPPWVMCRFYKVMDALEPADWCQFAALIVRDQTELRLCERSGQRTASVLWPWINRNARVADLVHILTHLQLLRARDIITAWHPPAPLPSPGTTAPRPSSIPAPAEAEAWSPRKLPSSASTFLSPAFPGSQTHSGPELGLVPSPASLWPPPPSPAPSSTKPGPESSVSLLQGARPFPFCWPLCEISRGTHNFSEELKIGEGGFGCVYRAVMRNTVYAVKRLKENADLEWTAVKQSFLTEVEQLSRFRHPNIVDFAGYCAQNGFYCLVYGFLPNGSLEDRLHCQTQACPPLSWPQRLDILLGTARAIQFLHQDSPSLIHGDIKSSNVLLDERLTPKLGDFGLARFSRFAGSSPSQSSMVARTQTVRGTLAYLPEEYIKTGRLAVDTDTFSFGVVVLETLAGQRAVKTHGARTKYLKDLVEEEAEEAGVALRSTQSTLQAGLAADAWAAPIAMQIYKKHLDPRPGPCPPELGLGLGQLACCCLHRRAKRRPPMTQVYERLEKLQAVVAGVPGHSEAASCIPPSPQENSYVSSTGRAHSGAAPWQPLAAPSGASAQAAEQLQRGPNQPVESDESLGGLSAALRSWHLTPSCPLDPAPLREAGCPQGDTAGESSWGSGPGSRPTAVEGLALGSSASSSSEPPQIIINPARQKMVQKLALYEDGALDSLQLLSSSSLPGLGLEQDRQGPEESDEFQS
PAK4, sequence (O96013 whole entry): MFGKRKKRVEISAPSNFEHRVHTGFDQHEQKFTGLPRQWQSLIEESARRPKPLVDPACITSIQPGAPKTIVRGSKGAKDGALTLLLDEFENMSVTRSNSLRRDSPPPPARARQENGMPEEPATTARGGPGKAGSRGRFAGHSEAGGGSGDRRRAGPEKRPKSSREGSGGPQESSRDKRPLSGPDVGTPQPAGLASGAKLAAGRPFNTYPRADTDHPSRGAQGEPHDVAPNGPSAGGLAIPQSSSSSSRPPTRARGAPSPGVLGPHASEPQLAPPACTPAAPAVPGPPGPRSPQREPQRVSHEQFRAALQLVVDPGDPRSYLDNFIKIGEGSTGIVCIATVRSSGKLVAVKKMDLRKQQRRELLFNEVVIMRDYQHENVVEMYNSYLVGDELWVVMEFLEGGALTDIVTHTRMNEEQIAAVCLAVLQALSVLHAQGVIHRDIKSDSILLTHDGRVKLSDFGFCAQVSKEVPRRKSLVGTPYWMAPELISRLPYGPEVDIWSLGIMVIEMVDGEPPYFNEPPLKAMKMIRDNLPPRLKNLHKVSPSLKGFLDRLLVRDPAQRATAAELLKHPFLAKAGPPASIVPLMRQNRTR
DYRK3, sequence (O43781 whole entry): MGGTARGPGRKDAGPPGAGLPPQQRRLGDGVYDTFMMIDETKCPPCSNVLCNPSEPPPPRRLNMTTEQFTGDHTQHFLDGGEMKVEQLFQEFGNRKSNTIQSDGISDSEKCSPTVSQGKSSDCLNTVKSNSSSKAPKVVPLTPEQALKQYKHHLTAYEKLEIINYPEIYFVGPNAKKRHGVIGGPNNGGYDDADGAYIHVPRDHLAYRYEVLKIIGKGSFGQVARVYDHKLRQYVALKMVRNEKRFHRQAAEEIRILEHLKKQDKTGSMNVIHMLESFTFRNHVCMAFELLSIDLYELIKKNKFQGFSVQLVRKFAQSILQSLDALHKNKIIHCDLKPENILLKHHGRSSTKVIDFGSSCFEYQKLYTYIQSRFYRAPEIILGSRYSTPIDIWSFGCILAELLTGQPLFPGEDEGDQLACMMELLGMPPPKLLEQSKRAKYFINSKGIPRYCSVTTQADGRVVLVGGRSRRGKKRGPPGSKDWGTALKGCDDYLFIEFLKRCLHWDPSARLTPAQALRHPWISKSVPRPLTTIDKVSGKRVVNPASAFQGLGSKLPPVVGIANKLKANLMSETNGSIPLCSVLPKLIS
NEK6, sequence (Q9HC98 whole entry): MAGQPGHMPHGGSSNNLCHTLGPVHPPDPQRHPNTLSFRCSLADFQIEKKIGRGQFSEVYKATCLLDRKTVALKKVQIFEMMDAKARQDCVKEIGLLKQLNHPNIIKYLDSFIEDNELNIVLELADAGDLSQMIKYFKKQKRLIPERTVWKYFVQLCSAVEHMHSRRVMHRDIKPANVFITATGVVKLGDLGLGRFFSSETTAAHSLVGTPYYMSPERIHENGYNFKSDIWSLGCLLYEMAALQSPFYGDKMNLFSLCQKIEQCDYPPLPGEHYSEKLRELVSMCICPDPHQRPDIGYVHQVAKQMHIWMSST
MLK1, sequence (P80192 whole entry): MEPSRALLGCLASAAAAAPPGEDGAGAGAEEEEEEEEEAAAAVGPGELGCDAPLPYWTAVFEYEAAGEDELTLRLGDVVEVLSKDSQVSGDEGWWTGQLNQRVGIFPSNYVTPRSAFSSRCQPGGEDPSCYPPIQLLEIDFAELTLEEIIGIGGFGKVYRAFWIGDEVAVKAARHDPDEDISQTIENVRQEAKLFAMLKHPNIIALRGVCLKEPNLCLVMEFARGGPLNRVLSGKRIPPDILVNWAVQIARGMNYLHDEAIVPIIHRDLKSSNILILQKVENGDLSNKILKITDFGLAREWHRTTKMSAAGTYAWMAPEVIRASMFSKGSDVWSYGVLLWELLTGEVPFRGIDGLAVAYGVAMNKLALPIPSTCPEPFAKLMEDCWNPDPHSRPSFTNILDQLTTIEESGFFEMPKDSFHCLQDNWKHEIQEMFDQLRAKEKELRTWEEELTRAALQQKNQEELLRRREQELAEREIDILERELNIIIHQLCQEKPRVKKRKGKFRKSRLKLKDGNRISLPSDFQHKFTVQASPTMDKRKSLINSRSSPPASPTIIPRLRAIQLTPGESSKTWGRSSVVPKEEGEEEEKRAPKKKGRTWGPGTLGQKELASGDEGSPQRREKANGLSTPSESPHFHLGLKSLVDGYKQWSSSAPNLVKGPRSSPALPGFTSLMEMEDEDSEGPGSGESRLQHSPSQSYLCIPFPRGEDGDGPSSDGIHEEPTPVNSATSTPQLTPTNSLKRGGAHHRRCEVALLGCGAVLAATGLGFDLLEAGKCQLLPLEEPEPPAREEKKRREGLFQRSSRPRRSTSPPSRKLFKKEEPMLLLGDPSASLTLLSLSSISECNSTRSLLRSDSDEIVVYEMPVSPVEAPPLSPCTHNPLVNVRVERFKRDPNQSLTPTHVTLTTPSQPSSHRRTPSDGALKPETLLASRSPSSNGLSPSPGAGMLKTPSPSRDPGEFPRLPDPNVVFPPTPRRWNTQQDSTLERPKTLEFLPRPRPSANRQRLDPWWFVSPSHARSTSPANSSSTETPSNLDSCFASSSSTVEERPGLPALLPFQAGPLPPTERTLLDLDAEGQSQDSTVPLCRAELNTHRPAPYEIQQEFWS

## Cc1cccc(C)c1NC(=O)N1C/C=C\COc2cccc(c2)Nc2cc1ncn2 [Compound I-1]
[1]; [18]
  remaining activity at 0.1 µM: 110%
[1]; [19]
  remaining activity at 1 µM: 78%
[2]; [18]
  remaining activity at 0.1 µM: 107%
[2]; [19]
  remaining activity at 1 µM: 84%
[3]; [18]
  remaining activity at 0.1 µM: 103%
[3]; [19]
  remaining activity at 1 µM: 76%
[4]; [18]
  remaining activity at 0.1 µM: 99%
[4]; [19]
  remaining activity at 1 µM: 87%
[5]; [18]
  remaining activity at 0.1 µM: 105%
[5]; [19]
  remaining activity at 1 µM: 83%
[6]; [18]
  remaining activity at 0.1 µM: 51%
[6]; [19]
  remaining activity at 1 µM: 30%
[7]; [18]
  remaining activity at 0.1 µM: 96%
[7]; [19]
  remaining activity at 1 µM: 95%
[8]; [18]
  remaining activity at 0.1 µM: 60%
[8]; [19]
  remaining activity at 1 µM: 17%
[9]; [18]
  remaining activity at 0.1 µM: 91%
[9]; [19]
  remaining activity at 1 µM: 87%
[10]; [18]
  remaining activity at 0.1 µM: 100%
[10]; [19]
  remaining activity at 1 µM: 93%
[11]; [18]
  remaining activity at 0.1 µM: 100%
[11]; [19]
  remaining activity at 1 µM: 77%
[12]; [18]
  remaining activity at 0.1 µM: 100%
[12]; [19]
  remaining activity at 1 µM: 78%
[13]; [18]
  remaining activity at 0.1 µM: 92%
[13]; [19]
  remaining activity at 1 µM: 90%
[14]; [18]
  remaining activity at 0.1 µM: 105%
[14]; [19]
  remaining activity at 1 µM: 83%
[15]; [18]
  remaining activity at 0.1 µM: 96%
[15]; [19]
  remaining activity at 1 µM: 100%
[16]; [18]
  remaining activity at 0.1 µM: 100%
[16]; [19]
  remaining activity at 1 µM: 91%
[17]; [18]
  remaining activity at 0.1 µM: 49%
[17]; [19]
  remaining activity at 1 µM: 7%
